In assay [1] the test system is Herpes simplex. To be noted: added to the assays after infection; cited from earlier work.
Assay [2] deals with Respiratory Syncytial Virus (RSV, type long strain). Nature of the assay: Virucidal (preventive) approach, pretreatment of cell-free virus, plaque forming units. The assay is classed as cell-based. To be noted: positive control at 0.3%; 2 and 24 h incubation.
Assay [3] relates to Adenovirus C (AV, subtype 5). The assay is classed as cell-based. The settings on record: positive control at 0.3%.
The test system of assay [4] is Influenza A virus (Flu A, H1N1). The experiment in a line: Virucidal (preventive) approach, pretreatment of cell-free virus, plaque forming units. The format is cell-based. To be noted: positive control at 0.3%; 2 and 24 h incubation.
Assay [5] deals with Rhinovirus (RV, subtype 14). The assay is described as above. The settings on record: positive control at 0.3%; 2 and 24 h incubation. The assay is classed as cell-based.
The test system of assay [6] is Respiratory Syncytial Virus (RSV, type long strain). The experiment in a line: Curative approach, plaque reduction assay. The settings on record: active control at concentrations between 5-50 µg mL^-1. The assay is classed as cell-based.
The test system of assay [7] is Influenza A virus (Flu A, H1N1). The experiment in a line: Curative approach, plaque reduction assay. The assay is classed as cell-based.
Assay [8] deals with Rhinovirus (RV, subtype 14). The experiment in a line: Curative approach, plaque reduction assay. The format is cell-based. The settings on record: active control at concentrations between 5-50 µg mL^-1.

Where two headings read alike, the source gives them in different places.

As to `CC1=CCC2CC1C2(C)C` (stereo not drawn) [α-pinene], in assay [1], the “reduction of Herpes simplex induced plaques” value (from here on “reduction”) was 30-40%.

Consider `C=C(C)[C@H]1CC=C(C)CC1` [limonene], for which the “reduction” value in assay [1] is 10-20%.

Take `Nc1nc2c(ncn2COCCO)c(=O)[nH]1` [acyclovir]: the “reduction” value in assay [1] was 100%.

In the case of `CCCCCCCCCCCCOS(=O)(=O)[O-].[Na+]` [SDS, Sodium dodecyl sulfate], the lowered infectivity in assay [2] is given as 56-100%; in assay [3] (2 h incubation) it was 52%; in assay [3] (24 h incubation) it was 63%; in assay [4], 56-100%; in assay [5] it was 56-100%.

In the case of `CC12CCC(CC1)C(C)(C)O2` [1,8-cineol], the “reduction” value in assay [1] is 30-40%.

As to `C=C1CCC2CC1C2(C)C` (stereo not drawn) [β-pinene], the “reduction” value in assay [1] was 10-20%.

Consider `NC(=O)c1ncn([C@@H]2O[C@H](CO)[C@@H](O)[C@H]2O)n1` [Ribavirin, ribavirin], for which the inhibited plaque formation in assay [6], in assay [7] (active control at concentrations between 5-50 µg mL^-1) and in assay [8] was 70-96% in each case. For the same compound, the “plaque formation (visual, Fig. 3)” value in assay [7] (active control) was “prevented plaque formation almost completely”.

These data come from patent EP3964221A1, “ANTIVIRAL AGENTS” (priority 2020, dated 2022).
